US7884120B2, “2,4,5-trisubstituted imidazoles and their use as anti-microbial agents” (Lorus Therapeutics Inc., priority 2002, dated 2011)
Values after ≈ are worked out from the molar mass of the structure shown. Read-outs that look alike come from different tables or passages of the source.

Key:
[1] = test system: Candida albicans (ATCC 24433); assay: In vitro anti-fungal activity, microdilution against Candida albicans; format: cell-based; conditions: for MIC: ATCC24433, C. albicans ATCC 24433
Procedure: A microdilution method was used to determine the anti-fungal activity of different test compounds against Candida albicans (ATCC 24433) at 25 μg/ml. RPMI-1640 broth is recommended as the medium of choice for susceptibility testing of C. albicans (NCCLS, 2002; Document M27-A2) and was used in this study. The broth was buffered to pH 7.0 and then sterilized using a 250 ml vacuum driven disposable 0.45 um filtration system.
C. albicans was sub-cultured from a −80° C. stock onto Sabouraud dextrose agar and incubated for 24-48 hrs at 37° C. The fungi inoculum was prepared by picking five colonies of ˜1 mm in diameter from 24-48 hr old cultures. The colonies were then suspended in 5 ml of sterile normal saline (8.5 g/L NaCl; 0.85% saline) diluted 1:50 and further diluted 1:20 with medium to obtain two-fold inoculum (1-5×10^3 cfu/ml). […] The microtitre plates were then sealed in plastic bags and incubated at 35° C. for 24-48 hrs in an ambient air incubator with shaking at 250 RPM.
Inhibition of visible growth of C. albicans in the microtitre plate wells was assessed by the unaided eye and confirmed by OD600 reading. […] The MIC values of compounds with significant activity are also included.

[2] = test system: MRSA 1B-387; assay: In vivo anti-bacterial activity, ICR mice inoculated I.P. with MRSA, oral treatment; conditions: Staphylococcus aureus
Procedure: For in vivo studies, groups of 5-10 female ICR mice (6-7 weeks) were inoculated intraperitonially with 3-8×10^7 CFU MRSA 1B-387 per mouse in 400 μl of 5% mucin. The test compounds at concentrations of 50 or 100 mg/kg were administered orally immediately after the bacterial inoculation and again 3 hours later. The selected dosages were administered twice daily throughout the experiment. The efficacy of the treatment was evaluated by comparison of mortality between the experimental and control groups (Table 5).

[3] = test system: S. aureus, MRSA 1A-218, 1A-318, 1B-374, 1B-315, 1B-185, 1B387 and MSSA ATCC-6538, ATCC-29213; assay: MIC by standard microdilution method against S. aureus (MRSA and MSSA strains); format: cell-based; conditions: Staphylococcus aureus
Procedure: A standard microdilution method (NCCLS, 2000; Document M7-A5) was used to determine the minimum inhibitory concentrations (MICs) against S. aureus, methicillin-resistant strains (MRSA); 1A-218, 1A-318, 1B-374, 1B-315, 1B-185, 1B387 (Simor et al. 1999 Can Commun Dis Rep; 25:105-108) and methicillin-sensitive strains (MSSA); ATCC-6538 and ATCC-29213. The MICs of some compounds were also determined against other Gram-positive bacteria: Enterococcus faecium (ATCC 51559), Enterococcus faecalis (ATCC-51299, ATCC-29212) and Staphylococcus epidermidis (ATCC-35983).
Mueller-Hinton broth (MHB) is recommended as the medium of choice for susceptibility testing of commonly isolated, rapidly growing aerobic organisms such as the Gram-positive bacteria included in this study. A “cation-adjusted Mueller-Hinton broth” (Ca-MHB) was prepared by first preparing standard MHB from a dehydrated base as recommended by the manufacturer.
Single colonies from fresh agar plates of the different bacterial cultures were sub-cultured overnight in 3 ml of Tryptic soy broth (TSB) at 37° C. with shaking at 250 RPM. After 18-20 hours of incubation, the absorbance at λ=600 nm (OD600) were determined for each culture and adjusted to a final OD600=0.1 (4.2×10^7 cfu/ml). Bacterial suspensions were then diluted 1:200 in sterile Ca-MHB for the in vitro susceptibility test, with each well of the microtitre plate containing approximately 2×10^5 cfu/ml.
Stock solutions of the different test compounds were prepared at concentrations of 1,280 μg/ml, 640 μg/ml, or 320 μg/ml in 50% DMSO (dimethyl sulfoxide). Serial two-fold dilutions were then prepared in 50% DMSO (the working concentrations were 1:10 of the stock concentrations in 100 μl culture suspensions). The filled microtitre plates were sealed in plastic bags and incubated at 35° C. for 24 hr in an ambient air incubator with shaking at 250 RPM. MIC values were determined as the lowest concentration where complete inhibition of the visible bacterial growth was observed by the unaided eye and confirmed by the measurement of the optical density (OD600).

[4] = ATCC24433, C. albicans ATCC 24433, compound 25 μg/ml, 24 h, read-out: Inhibition (%) after 24 h
[5] = ATCC24433, C. albicans ATCC 24433, compound 25 μg/ml, 48 h, read-out: Inhibition (%) after 48 h
[6] = against all 8 strains of S. aureus tested except where indicated, microdilution, Ca-MHB, 35° C., 24 hr, read-out: MIC
[7] = ATCC24433, 24 h, read-out: Inhibition (%) after 24 h
[8] = ATCC24433, 48 h, read-out: Inhibition (%) after 48 h

Row | SMILES | MIC [3, 6] [µg/mL] | inhibition at 25 µg/mL [1, 4] [%] | inhibition at 25 µg/mL [1, 5] [%] | responders at 100 mg/kg [2] [%] | responders at 100 mg/kg ([2]; read-out: Survival %) [%] | further results
1 | CC(=O)n1c(-c2c(C)n(C(C)=O)c3ccccc23)nc(-c2ccccc2)c1-c1ccccc1 [Compound 5] | > 128 | 0 | 0 | 20 | 20 | –
2 | Brc1ccc2[nH]cc(-c3nc(-c4ccccc4)c(-c4ccccc4)[nH]3)c2c1 [Compound 6] | 4 (≈ 9.65 µM) | 0 | 0 | 40 | 40 | –
3 | Fc1ccc(-c2nc(-c3c[nH]c4ccc(Br)cc34)[nH]c2-c2ccc(F)cc2)cc1 [Compound 8] | 2 (≈ 4.44 µM) | 100 | 100 | 20 | 20 | MIC [1]: 8 µg/mL (≈ 17.8 µM)
4 | COc1ccc(-c2nc(-c3c[nH]c4ccc(Br)cc34)[nH]c2-c2ccc(OC)cc2)cc1 [Compound 10] | 4 (≈ 8.43 µM) | 0 | 0 | 100 | 100 | –
5 | Cc1[nH]c2ccccc2c1-c1nc(-c2ccc(N(C)C)cc2)c(-c2ccc(N(C)C)cc2)[nH]1 [Compound 11] | 8 (≈ 18.4 µM) | 27 | 28 | 0 | 0 | –
6 | Clc1ccc(-c2[nH]c(-c3c[nH]c4ccc(Br)cc34)nc2-c2ccccc2)cc1 [Compound 32] | 8 (≈ 17.8 µM) | 93 | 100 | 40 | 40 | MIC [1]: 8 µg/mL (≈ 17.8 µM)
7 | Cc1[nH]c2ccccc2c1-c1nc(-c2ccccc2)c(-c2ccc([N+](=O)[O-])cc2)[nH]1 [Compound 33] | 4 to 8 (≈ 10.1 to 20.3 µM) | 0 | 0 | 0 | 0 | –
8 | O=[N+]([O-])c1ccc(-c2[nH]c(-c3c[nH]c4ccc(Br)cc34)nc2-c2ccccc2)cc1 [Compound 34] | > 128 | 0 | 0 | 100 | 100 | –
9 | Cc1[nH]c2ccccc2c1-c1nc(-c2ccccc2)c(-c2ccc(F)cc2)[nH]1 [Compound 35] | 8 (≈ 21.8 µM) | 100 | 73 | 4 | 40 | –
10 | Fc1ccc(-c2[nH]c(-c3c[nH]c4ccc(Br)cc34)nc2-c2ccccc2)cc1 [Compound 36] | 2 (≈ 4.63 µM) | 86 | 97 | 80 | 80 | MIC [1]: 16 µg/mL (≈ 37 µM)
11 | Cc1[nH]c2ccccc2c1-c1nc(-c2ccccc2)c(-c2ccc(Br)cc2)[nH]1 [Compound 42] | 4 (≈ 9.34 µM) | 77 | 43 | 0 | 0 | –
12 | Brc1ccc(-c2[nH]c(-c3c[nH]c4ccc(Br)cc34)nc2-c2ccccc2)cc1 [Compound 43] | 4 (≈ 8.11 µM) | 87 | 59 | 80 | 80 | MIC [1]: 8 µg/mL (≈ 16.2 µM)
13 | Cc1[nH]c2ccccc2c1-c1nc2c3ccccc3c3ccccc3c2[nH]1 [Compound 44] | – | – | – | 60 | 60 | inhibition at 25 µg/mL [1, 7]: 0%; inhibition at 25 µg/mL [1, 8]: 0%; MIC ([3]; 24 h): 8 µg/mL (≈ 23 µM)
14 | c1ccc2c(-c3nc4c5ccccc5c5ccccc5c4[nH]3)c[nH]c2c1 [Compound 46] | – | – | – | 40 | 40 | inhibition at 25 µg/mL [1, 7]: 33%; inhibition at 25 µg/mL [1, 8]: 0%; MIC ([3]; 24 h): 4 µg/mL (≈ 12 µM)
15 | COC(=O)c1ccc2c(-c3nc(-c4ccccc4)c(-c4ccccc4)[nH]3)c[nH]c2c1 [Compound 83] | > 128 | 0 | 0 | 20 | 20 | –

Continued, in another order:

Row | MIC [3, 6] [µg/mL] | SMILES | inhibition at 25 µg/mL [1, 4] [%] | inhibition at 25 µg/mL [1, 5] [%] | responders at 100 mg/kg [2] [%] | responders at 100 mg/kg ([2]; read-out: Survival %) [%] | further results
16 | 2 (≈ 5.15 µM) | Oc1ccc(-c2nc(-c3ccc(-c4ccccc4)cc3)c(-c3ccccc3)[nH]2)cc1 [Compound 63] | – | – | – | – | –
17 | 4 (≈ 9.87 µM) | Cc1ccc(-c2nc(-c3cccc(O)c3)[nH]c2-c2ccccc2Br)cc1 [Compound 64] | – | – | – | – | –
18 | 16 (≈ 32.1 µM) | O=C(O)c1ccc(-c2nc(-c3ccc(Br)cc3)c(-c3ccc(Br)cc3)[nH]2)cc1 [Compound 65] | – | – | – | – | –
19 | 2 (≈ 4.53 µM) | COc1cc(-c2nc(-c3ccc(Cl)cc3)c(-c3ccc(Cl)cc3)[nH]2)cc(OC)c1O [Compound 66] | – | – | – | – | –
20 | 16 (≈ 43.1 µM) | Cc1ccc([N+](=O)[O-])cc1-c1[nH]c(-c2cccc(O)c2)nc1-c1ccccc1 [Compound 67] | – | – | – | – | –
21 | 16 (≈ 40.3 µM) | Oc1ccc(-c2nc(-c3cccc(Cl)c3Cl)c(-c3ccccc3)[nH]2)cc1O [Compound 69] | – | – | – | – | –
22 | 8 (≈ 19.5 µM) | COc1ccc(-c2nc(-c3cccc(Cl)c3Cl)c(-c3ccccc3)[nH]2)cc1O [Compound 70] | – | – | – | – | –
23 | 8 (≈ 23.5 µM) | Cc1ccc(C)c(-c2nc(-c3cccc(O)c3)[nH]c2-c2ccccc2)c1 [Compound 71] | – | – | – | – | –
24 | 0.5 to 2 (≈ 0.709 to 2.84 µM) | O=C(O)c1ccc(-c2nc(-c3ccc4c(c3)-c3cc(-c5[nH]c(-c6ccc(C(=O)O)cc6)nc5-c5ccccc5)ccc3C4=O)c(-c3ccccc3)[nH]2)cc1 [Compound 72] | – | – | – | – | –
25 | > 128 | COc1ccc(-c2nc(-c3ccccc3)c(-c3ccccc3)[nH]2)c(OC)c1 [Compound 73] | – | – | – | – | –
26 | > 128 | COc1ccc(-c2nc(-c3ccc(F)cc3)c(-c3ccccc3)[nH]2)c(OC)c1 [Compound 74] | – | – | – | – | –
27 | 32 (≈ 83.7 µM) | Cc1[nH]c2ccc(N)cc2c1-c1nc(-c2ccc(F)cc2)c(-c2ccccc2)[nH]1 [Compound 75] | – | – | – | – | –
28 | > 128 | Fc1ccc(-c2nc(-c3ccc4[nH]ccc4c3)[nH]c2-c2ccccc2)cc1 [Compound 76] | – | – | – | – | –
29 | > 128 | Cc1[nH]c2ccc([N+](=O)[O-])cc2c1-c1nc(-c2ccc(F)cc2)c(-c2ccccc2)[nH]1 [Compound 77] | – | – | – | – | –
30 | 2 (≈ 4.22 µM) | COc1cccc(-c2nc(-c3c[nH]c4ccc(Br)cc34)[nH]c2-c2cccc(OC)c2)c1 [Compound 84] | – | – | – | – | –
